Experimental data taken from the COVID Moonshot data (paper PMC7615835).
“And” between values parts separate entries of the source, which are not always exact repeats. Equal entries are not always repeated.

Target: SARS-CoV-2 Main Protease (SARS-CoV-2) (UniProt P0DTD1)
Conditions: not given

| Compound | IC50 |
| --- | --- |
| O=C(Nc1cncc2ccccc12)C1CN(C(=O)C2CC2)Cc2ccc(Cl)cc21 (stereo unspecified) | 0.487 µM |
| COc1cc(OC)nc(C#N)n1 | > 99.5 µM |
| CN1CCN(C2CCN(c3cc(Cl)cc(CC(=O)Nc4cncc5ccccc45)c3)CC2)CC1 | 4.56 µM |
| Cc1ccncc1NC(=O)Cc1cc(Cl)cc(NS(N)(=O)=O)c1 | 11.3 µM |
| O=C(NCCc1ccccc1)[C@H]1CN(C(=O)CCl)CCN1S(=O)(=O)c1ccsc1 (stereo in doubt) | 2.43 µM |
| CCOC(=O)c1nc(S(C)(=O)=O)ncc1Cl | 1.6 µM |
| Cc1nn2c(CNc3ccc(Cn4cncn4)cc3)c(C)nc2s1 | > 99.5 µM |
| CCc1cc(F)ccc1-c1cc(Cl)cc(CC(=O)Nc2cnccc2C)c1 | 31.6 µM |
| CC(C)(C)c1ccc(N(C(=O)c2coc(CS(C)(=O)=O)n2)C(C(=O)NCCc2cccc(F)c2)c2cccnc2)cc1 (stereo unspecified) | 39.2 µM |
| CC(C)(c1ccc(N(C(=O)c2cocn2)C(C(=O)NCCc2cccc(F)c2)c2cccnc2)cc1)S(C)(=O)=O (stereo unspecified) | 67.8 µM |
| Cc1cc(Nc2cc(Cl)cc(CC(=O)Nc3cncc4ccccc34)c2)c(Cl)cc1F | 2.15 µM |
| Nc1cccc(C2CN(C(=O)CCl)Cc3ccccc32)c1 (stereo unspecified) | 9.23 µM |

System: not given
Conditions: mouse; in vivo; iv; 0.5 mg/kg

| Compound | AUC(0-inf) | AUC(0-t) | C0 | MRT inf | MRT last | Vd | clearance | half-life |
| --- | --- | --- | --- | --- | --- | --- | --- | --- |
| O=C1CC(C(=O)Nc2cncc3ccccc23)c2cc(Cl)c(Cl)cc2N1 (stereo unspecified) | 199 ng·h/mL and 230 ng·h/mL | 197 ng·h/mL and 226 ng·h/mL | 268 ng/mL and 390 ng/mL | 44.9 min and 49.9 min | 42.4 min and 45.4 min | 1.88 L/kg and 1.81 L/kg | 41.9 mL/min/kg and 36.2 mL/min/kg | 34.4 min and 43.6 min |
| CS(=O)(=O)N1Cc2ccc(Cl)cc2C(C(=O)Nc2cncc3ccccc23)C1 (stereo unspecified) | 125 ng·h/mL and 139 ng·h/mL | 124 ng·h/mL and 138 ng·h/mL | 399 ng/mL and 588 ng/mL | 21.6 min and 18.2 min | 20.8 min and 17.6 min | 1.4 L/kg and 1.06 L/kg | 64.9 mL/min/kg and 59 mL/min/kg | 16.7 min |

Same assay, conditions: rat; in vivo; iv; 0.5 mg/kg

| Compound | AUC(0-inf) | AUC(0-t) | C0 | MRT inf | MRT last | Vd | clearance | half-life |
| --- | --- | --- | --- | --- | --- | --- | --- | --- |
| Cc1c(N)cncc1NC(=O)Cc1cccc(Cl)c1 | 210 ng·h/mL and 187 ng·h/mL | 209 ng·h/mL and 185 ng·h/mL | 485 ng/mL and 446 ng/mL | 28.8 min and 30.5 min | 29.5 min and 27.3 min | 1.21 L/kg and 1.28 L/kg | 39.8 mL/min/kg and 44.6 mL/min/kg | 28.2 min and 25 min |
| Cc1cc2c(NC(=O)C3CCOc4ccc(Cl)cc43)cncc2s1 (stereo unspecified) | 122 ng·h/mL and 130 ng·h/mL | 118 ng·h/mL and 128 ng·h/mL | 342 ng/mL and 378 ng/mL | 26.3 min and 28.9 min | 25.1 min and 24.1 min | 1.76 L/kg and 1.52 L/kg | 60.8 mL/min/kg and 58 mL/min/kg | 22.4 min and 25 min |
| CS(=O)(=O)N1Cc2ccc(Cl)cc2C(C(=O)Nc2cncc3c2CCCC3)C1 (stereo unspecified) | 196 ng·h/mL and 264 ng·h/mL | 195 ng·h/mL and 262 ng·h/mL | 541 ng/mL and 625 ng/mL | 35.6 min and 31 min | 29.8 min and 34 min | 1.32 L/kg and 1.14 L/kg | 42.5 mL/min/kg and 33 mL/min/kg | 30.6 min and 25.6 min |
| O=C(Nc1cncc2cc(F)ccc12)C1CCS(=O)(=O)c2ccc(Cl)cc21 (stereo unspecified) | 875 ng·h/mL and 1050 ng·h/mL | 869 ng·h/mL and 1030 ng·h/mL | 655 ng/mL and 704 ng/mL | 118 min and 107 min | 104 min and 111 min | 1.03 L/kg and 0.95 L/kg | 9.52 mL/min/kg and 8.12 mL/min/kg | 69.6 min and 78 min |
| CC1(C(=O)Nc2cncc3ccc(S(C)(=O)=O)cc23)CNC(=O)c2ccc(Cl)cc21 (stereo unspecified) | 304 ng·h/mL and 309 ng·h/mL | 292 ng·h/mL and 303 ng·h/mL | 660 ng/mL and 636 ng/mL | 38.1 min and 34.1 min | 29.1 min and 35 min | 1.08 L/kg and 1.19 L/kg | 31.8 mL/min/kg and 32.2 mL/min/kg | 26.9 min and 30.5 min |
| Cc1cccc2cncc(NC(=O)Cc3cccc(Cl)c3)c12 | 206 ng·h/mL and 112 ng·h/mL | 203 ng·h/mL and 111 ng·h/mL | 934 ng/mL and 490 ng/mL | 21.8 min and 18.2 min | 16.2 min and 19.9 min | 0.737 L/kg and 1.83 L/kg | 40.4 mL/min/kg and 84.8 mL/min/kg | 24.9 min and 34.8 min |
